One data set has as its target T1, COX-2 (UniProt P35354).
T1 sequence (P35354 1-604): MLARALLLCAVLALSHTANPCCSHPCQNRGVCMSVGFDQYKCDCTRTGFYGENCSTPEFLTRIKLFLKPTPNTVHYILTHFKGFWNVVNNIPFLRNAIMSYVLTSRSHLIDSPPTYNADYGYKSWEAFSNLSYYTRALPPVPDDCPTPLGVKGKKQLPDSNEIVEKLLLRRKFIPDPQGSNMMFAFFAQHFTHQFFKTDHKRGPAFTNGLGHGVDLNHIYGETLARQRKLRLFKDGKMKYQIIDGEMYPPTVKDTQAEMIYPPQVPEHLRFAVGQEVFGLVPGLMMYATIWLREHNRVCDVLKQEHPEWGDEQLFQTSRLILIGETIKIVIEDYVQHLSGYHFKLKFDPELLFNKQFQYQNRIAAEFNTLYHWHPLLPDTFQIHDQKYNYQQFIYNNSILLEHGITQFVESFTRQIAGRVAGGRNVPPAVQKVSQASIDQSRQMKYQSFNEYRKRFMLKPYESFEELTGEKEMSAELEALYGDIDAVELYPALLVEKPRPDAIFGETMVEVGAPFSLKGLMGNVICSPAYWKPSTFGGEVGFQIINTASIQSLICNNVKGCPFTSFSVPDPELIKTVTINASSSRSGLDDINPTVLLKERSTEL
Briefly: Assay for COX-2 activity in vitro (PGE2 ELISA, recombinant enzyme). The following applies: recombinant COX-2, arachidonic acid 10 μM, pre-incubation 10–20 minutes. The format is biochemical, human or murine. Here is the method:
Evaluation of COX-1 and COX-2 Activity in vitro
The COX-2 inhibit on activity of the compounds or this invention illustrated in the Examples was determined by the following methods. a. Preparation of Recombinant COX Baculoviruses
(§1) Recombinant COX-1 and COX-2 were prepared as described by Gierse et al, [J. Biochem., 305, 479–84 (1995)]. A 2.0 kb fragment containing the coding region of either human or murine COX-1 or human or murine COX-2 was cloned into a BamHI site of the baculovirus transfer vector pVL1393 (Invitrogen) to generate the baculovirus transfer vectors for COX-1 and COX-2 in a manner similar to the method of D. R. O'Reilly et al (Baculovirus Expression Vectors: A Laboratory Manual (1992)). Recombinant baculoviruses were isolated by transfecting 4 μg of baculovirus transfer vector DNA into SF9 insect cells (2×10^8) along with 200 ng of linearized baculovirus plasmid DNA by the calcium phosphate method. See M. D. Summers and G. E. Smith, A Manual of Methods for Baculovirus Vectors and Insect Cell Culture Procedures, Texas Agric. Exp. Station Bull. 1555 (1987). Recombinant viruses were purified by three rounds of plaque purification and high titer (10^7–10^8 pfu/ml) stocks of virus were prepared. For large scale production, SF9 insect cells were infected in 10 liter fermentors (0.5×10^6/ml) with the recombinant baculovirus stock such that the multiplicity of infection was 0.1. After 72 hours the cells were centrifuged and the cell pellet homogenized in Tris/Sucrose (50 mM: 25%, pH 8.0) containing 1% 3-[(3-cholamidopropyl)dimethylammonio]-1-propanesulfonate (CHAPS). The homogenate was centrifuged at 10,000×G for 30 minutes, and the resultant supernatant was stored at −80° C. before being assayed for COX activity. […]
(§2) b. Assay for COX-1 and COX-2 Activity
(§3) COX activity was assayed as PGE2 formed/μg protein/time using an ELISA to detect the prostaglandin released. CHAPS-solubilized insect cell membranes containing the appropriate COX enzyme were incubated in a potassium phosphate buffer (50 mM, pH 8.0) containing epinephrine, phenol, and heme with the addition of arachidonic acid (10 μM). Compounds were pre-incubated with the enzyme for 10–20 minutes prior to the addition of arachidonic acid. Any reaction between the arachidonic acid and the enzyme was stopped after ten minutes at 37° C./room temperature by transferring 40 μl of reaction mix into 160 μl ELISA buffer and 25 μM indomethacin. The PGE2 formed was measured by standard ELISA technology (Cayman Chemical).
A general note: ELISA stands for enzyme-linked immunosorbent assay.

The target of a further data set is COX-1 (UniProt P23219). Briefly: Assay for COX-1 activity in vitro (PGE2 ELISA, recombinant enzyme). In kind it is biochemical, human or murine. As to conditions: recombinant COX-1, arachidonic acid 10 μM, pre-incubation 10–20 minutes. As for the experimental part:
Evaluation of COX-1 and COX-2 Activity in vitro a. Preparation of Recombinant COX Baculoviruses
as §1, §2, §3

In a further data set the target is T2, 5-lipoxygenase (5-LO) (Homo sapiens, UniProt P09917).
T2 construct: calcium ionophore-induced Leukotriene B4 (LTB4) production in human whole blood; endogenous in cells; host or cells: human whole blood (healthy donors), diluted 1:4 in RPMI 1640
T2 sequence (P09917 1-674): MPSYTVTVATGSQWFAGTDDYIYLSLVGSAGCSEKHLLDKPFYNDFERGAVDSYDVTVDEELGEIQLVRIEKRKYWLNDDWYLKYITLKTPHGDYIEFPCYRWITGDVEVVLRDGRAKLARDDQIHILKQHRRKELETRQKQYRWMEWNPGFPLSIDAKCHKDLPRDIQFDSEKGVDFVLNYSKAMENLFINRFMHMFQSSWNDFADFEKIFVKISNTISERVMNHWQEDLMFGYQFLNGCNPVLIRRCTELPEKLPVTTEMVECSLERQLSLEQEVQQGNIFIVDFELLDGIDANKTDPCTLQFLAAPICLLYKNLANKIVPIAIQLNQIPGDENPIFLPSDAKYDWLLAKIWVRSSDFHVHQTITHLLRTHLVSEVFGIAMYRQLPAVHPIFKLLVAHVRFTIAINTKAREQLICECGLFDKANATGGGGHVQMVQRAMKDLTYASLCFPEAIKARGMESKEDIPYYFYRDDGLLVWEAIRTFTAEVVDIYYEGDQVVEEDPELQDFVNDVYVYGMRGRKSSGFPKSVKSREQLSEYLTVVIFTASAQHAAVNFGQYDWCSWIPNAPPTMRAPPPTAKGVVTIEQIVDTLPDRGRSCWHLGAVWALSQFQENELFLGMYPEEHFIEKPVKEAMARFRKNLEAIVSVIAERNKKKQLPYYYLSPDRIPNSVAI
Nature of the data set: Assay for 5-lipoxygenase activity: calcium ionophore-induced LTB4 production in human whole blood. The format is cell-based. The following applies: A-23187 (20 μg/ml)-induced LTB4 in human whole blood; mean IC50. Here is the method:
Assay for 5-Lipoxygenase Activity
The 5-lipoxygenase (5-LO) activity of the compounds were determined by the calcium ionophore-induced Leukotriene B4 (LTB4) production in human whole blood. Venous blood was collected from healthy human donors using heparin as an anti-coagulant. Human blood samples (0.2 ml of a 1:4 dilution in RPMI 1640 medium) were incubated in 96-well culture plates for 15 minutes at 37° C. with test compounds dissolved in ethanol (EtOH; final concentration<1%), or vehicle. Typically 7 concentrations of test compounds were examined in duplicate. A-23187 [Sigma] was added to the blood to a final concentration of 20 μg/ml, and the mixtures were incubated for 10 minutes at 37° C. The reaction was stopped by placing the samples on ice. The samples were then centrifuged at 800×g at 4° C. for 10 minutes to pellet the cells, and the supernatants were recovered for quantitation of LTB4 by LISA (Cayman Chemical Co.; sensitivity 3 pg/ml). IC50's were estimated from a four parameter logistic model with two parameters fixed, the minimum (0% inhibition) and maximum (100% inhibition). The IC50 value is the concentration that produces 50% inhibition between the fixed values of the minimum and maximum. Data is reported as the mean IC50 for each compound.

SMILES strings stand for the structures.

By IC50 is commonly meant the concentration that gives 50% inhibition. Regarding `COC1(c2cc(F)cc(OCc3cc(-c4ccc(Cl)cc4)n(-c4ccc(S(N)(=O)=O)cc4)n3)c2)CCOCC1` [Example 1, 4-[5-(4-Chlorophenyl)-3-[[3-fluoro-5-(3,4,5,6-tetrahydro-4-methoxy-2H-pyran-4-yl)phenoxy]methyl]-1H-pyrazol-1-yl]benzenesulfonamide], the IC50 at COX-2 was below 100 nM; on COX-1, 38000 nM; at 5-lipoxygenase (5-LO), 150 nM.
The matching figures for `COC1(c2cccc(OCc3nc(-c4ccc(F)cc4)c(-c4ccc(S(C)(=O)=O)cc4)o3)c2)CCOCC1` [Example 2, 4-(4-Fluorophenyl)-5-(4-(methylsulfonyl)phenyl)-2-[[3-(3,4,5,6-tetrahydro-4-methoxy-2H-pyran-4-yl)phenoxy]methyl]oxazole]: 200 nM, above 10000 nM and 50 nM.
Usually melting point stands for the temperature of the solid-liquid transition. The compound `COC1(c2cc(F)cc(Oc3nc(-c4ccccc4)c(-c4ccc(S(N)(=O)=O)cc4)o3)c2)CCOCC1` [Example 4, 4-[2-[3-Fluoro-5-(4-methoxy-3,4,5,6-tetrahydro-2H-pyran-4-yl)phenoxy]-4-phenyl-5-oxazolyl]benzenesulfonamide] yielded a melting point of 159 to 161 °C. Also, the IC50 at COX-2 was below 100 nM. Besides, the IC50 at COX-1 was below 100 nM. The IC50 at 5-lipoxygenase (5-LO) worked out at 14000 nM.
Compound `COC1(c2cccc(Oc3nc(-c4ccccc4)c(-c4ccc(S(N)(=O)=O)cc4)o3)c2)CCOCC1` [Example 5, 4-[2-[3-(4-Methoxy-3,4,5,6-tetrahydro-2H-pyran-4-yl)phenoxy]-4-phenyl-5-oxazolyl]benzenesulfonamide] showed a melting point of 145 to 147 °C. Further, at COX-2, the IC50 is below 100 nM. For the same compound, on COX-1, the IC50 was below 100 nM. Besides, the IC50 on 5-lipoxygenase (5-LO) amounted to 17000 nM.
On to `COc1cccc(SCc2cc(-c3ccc(Cl)cc3)n(-c3ccc(S(N)(=O)=O)cc3)n2)c1` [Example 6, 4-[5-(4-Chlorophenyl)-3-(3-methoxyphenyl)thiomethyl-1H pyrazol-1-yl]benzenesulfonamide], for which the IC50 at COX-2 was below 100 nM; on COX-1, 2200 nM; at 5-lipoxygenase (5-LO) it was 440 nM.
In the same order, the values of `COc1cccc(OCc2cc(-c3ccc(Cl)cc3)n(-c3ccc(S(N)(=O)=O)cc3)n2)c1` [Example 7, 4-[5-(4-Chlorophenyl)-3-(3-methoxyphenyl)oxymethyl-1H-pyrazol-1-yl]benzenesulfonamide] are below 100 nM, 3800 nM and 650 nM.
As for `COC1(c2cc(F)cc(OCc3nc(-c4ccccc4)c(-c4ccc(S(N)(=O)=O)cc4)o3)c2)CCOCC1` [Example 8, 4-[2-[[3-Fluoro-5-(3,4,5,6-tetrahydro-4-methoxypyran-4-yl)phenoxy]methyl]-4-phenyloxazol-5-yl]benzenesulfonamide], the melting point lay in the range of 70 to 80 °C. In addition, at COX-2, the IC50 is below 100 nM. The IC50 at COX-1 amounted to 1300 nM. Further, at 5-lipoxygenase (5-LO), the IC50 was determined as 300 nM.
Compound `COC(=O)C(Cc1cccc(C2(OC)CCOCC2)c1)c1nc(-c2ccccc2)c(-c2ccc(S(N)(=O)=O)cc2)o1` (stereo not drawn) [Example 9, Methyl 5-[4-(aminosulfonyl)phenyl]-α-[[3-(3,4,5,6-tetrahydro-4-methoxypyran-4-yl)phenyl]methyl]-4-phenyloxazole-2-acetate] came in with a melting point of 88.7 to 94.9 °C. Moreover, at COX-2, the IC50 was determined as 10000 nM. The IC50 on COX-1 stood at 80000 nM. Moreover, the IC50 on 5-lipoxygenase (5-LO) is above 10000 nM.
In the same order, the values of `COC1(c2cc(F)cc(OCC#Cc3ccc(Cc4nc(-c5ccccc5)c(-c5ccc(S(N)(=O)=O)cc5)o4)cc3)c2)CCOCC1` [Example 12, 4-[2-[[4-[3-[3-Fluoro-5-(3,4,5,6-tetrahydro-4-methoxypyran-4-yl)phenoxy]-1-propynyl]phenyl]methyl]-4-phenyloxazol-5-yl]benzenesulfonamide] are 86 to 100 °C, below 100 nM, above 100000 nM and above 10000 nM.
Regarding `COC1(c2cc(F)cc(OCc3onc(-c4ccccc4)c3-c3ccc(S(N)(=O)=O)cc3)c2)CCOCC1` [Example 16, 4-[5-[[3-Fluoro-5-(3,4,5,6-tetrahydro-4-methoxypyran-4-yl)phenoxy]methyl]-3-phenylisoxazol-4-yl]benzenesulfonamide], the IC50 on COX-2 is below 100 nM; at COX-1, above 100000 nM; on 5-lipoxygenase (5-LO), above 10000 nM.
In turn, `COC1(c2cccc(CSCc3nc(-c4ccccc4)c(-c4ccc(S(N)(=O)=O)cc4)o3)c2)CCOCC1` [Example 18, 4-[2-[[[3-(3,4,5,6-Tetrahydro-4-methoxypyran-4-yl)phenylmethyl]thio]methyl]-4-phenyloxazol-5-yl]benzenesulfonamide] yielded a melting point of 77.2 to 81.7 °C.
In the case of `COC1(c2cc(F)cc(OCC(=O)NCCc3nc(-c4ccccc4)c(-c4ccc(S(N)(=O)=O)cc4)o3)c2)CCOCC1` [Example 22], the IC50 is 1100 nM at COX-2, above 100000 nM on COX-1 and above 10000 nM on 5-lipoxygenase (5-LO).
